# Laboratory results taken from US20040067998A1, “Antifungal and/or antiparasitic pharmaceutical composition and novel indole derivatives as active principle of such a composition” (priority 2003, published 2004).
# Values joined by “and” are separate entries in the source; they are usually repeats but may differ in a detail not shown here. Identical values can stand only once. “Also recorded” adds a separate entry of the source. Like-named read-outs stand apart in the source and are kept apart here.
# Assays:
# [1] = system: promastigote stage of Leishmania mexicana; experiment: Antiparasitic activity on the promastigote form of Leishmania (MTT); assay type: cell-based
# [2] = system: Candida albicans (strain n° CA980001); experiment: Antifungal activity on a clinical strain of Candida albicans (MTT colorimetric microplate test); assay type: cell-based; settings: strain CA980001; for MIC: read-out: CMI or CI80 Candida albicans (CA980001)
# [3] = system: Aspergillus fumigatus (strain n°AF 980003); experiment: Antifungal activity on a clinical strain of Aspergillus fumigatus (Alamar Blue microplate test); assay type: cell-based; settings: Aspergillus fumigatus, strain AF980003, read-out: CMI or CI80 Aspergillus fumigatus (AF980003)
# [4] = system: Candida krusei (4 strains); experiment: Antifungal activity in vitro on clinical strains of Candida: krusei (4 strains); assay type: cell-based
# synthesis of ergosterol = experiment: Mechanism of action: quantification of ergosterol (HPLC and UV spectrophotometry); assay type: cell-based
# Description: The principal mechanism of action of the triazole derivatives is the inhibition of the synthesis of ergosterol leading to instability of the cell membrane. […] These two techniques require a prior saponification of the sample followed by an extraction of the sterols present. The results obtained are expressed in μg of ergosterol per g of sample. The activity of the derivatives studied is expressed by their capacity to inhibit the synthesis of ergosterol compared to an untreated control sample.
# [5] = system: clinical strains of Candida; experiment: Antifungal activity in vitro on several clinical strains of Candida (overall statement over all strains); assay type: cell-based; settings: summary of Table 41
# [6] = system: Candida lusitaniae (1 strain); experiment: Antifungal activity in vitro on clinical strains of Candida: lusitaniae (1 strain); assay type: cell-based; settings: for CI80 on clinical strains of Candida: strain CL980001 (Candida lusitaniae)
# [7] = system: Candida parapsilosis (2 strains); experiment: Antifungal activity in vitro on clinical strains of Candida: parapsilosis (2 strains); assay type: cell-based
# [8] = system: Candida tropicalis (1 strain); experiment: Antifungal activity in vitro on clinical strains of Candida: tropicalis (1 strain); assay type: cell-based; settings: strain CT980002 (Candida tropicalis)
# [9] = system: Candida albicans (CA98001); experiment: Antifungal activity in vivo on a model of disseminated candidiasis; set-up: species or system female Swiss mice; settings: for survival at D10: Test N°4
# [10] = system: Candida albicans (4 strains); experiment: Antifungal activity in vitro on clinical strains of Candida: albicans (4 strains); assay type: cell-based
# [11] = system: intracellular amastigote form of Leishmania mexicana; experiment: Anti-leishmanian activity on the amastigote form in peritoneal macrophages of BALB/c mice; assay type: cell-based; settings: for IC50: Leishmania mexicana, Peritoneal macrophage, read-out: CI50 Intracellular amastigotes
# Leishmania major = experiment: Anti-leishmanian activity in vivo on a model of cutaneo-mucosal and visceral leishmaniasis; set-up: species or system male BALB/c mice
# Protocol: (1999), Croft et al. (1993) and Hill et al. (1983). The animals used (Centre d'élevage R. Janvier, Le Genest-St-France) were male BALB/c mice, aged 7 weeks at the time of inoculation of the parasites. This operation was performed in accordance with the legislation relating to animal experimentation. […] Days after the inoculation, the treatment was administered intraperitoneally for 10 days. Three weeks after the treatment, its effectiveness was determined by determining the parasite level in the liver, spleen, popliteal ganglion and the cutaneous lesion.
# [12] = Leishmania mexicana; promastigotes; 36 h at 26° C., MTT; read-out: CI50 Leishmania mexicana Promastigotes
# [13] = Candida albicans, 24 h at 37° C., MTT
# [14] = strain CK980002 (Candida krusei)
# [15] = strain CK980003 (Candida krusei)
# [16] = strain CK980004 (Candida krusei)
# [17] = strain CP980002 (Candida parapsilosis)
# [18] = Test N°3, 3 × 20 mg/kg/d for 5 d intraperitoneal
# [19] = strain CA980001 (Candida albicans)
# [20] = Test N°3, ketoconazole 20 mg/kg/d for 5 d
# [21] = compound 45 intraperitoneally for 10 days, dose not given, three weeks after treatment
smiles,measurement,setting,value
"CCN1CCc2cc(Br)cc(C(c3ccc(F)cc3)n3ccnc3)c21 (centres unmarked) [Cpsé 51, 5-Bromo-1-ethyl-7-[(4-fluorophenyl)(1H-imidazol-1-yl)methyl]indoline]",melting point,,120 to 123 °C
same,IC50,[1]; [12],59.2 µM and 23.8 µg/mL
same,MIC,[2]; [13],> 100 µM
same,MIC,[3]; Alamar Blue,> 100 µM
"Clc1ccc(Cn2cc(CCn3ccnc3)c3ccccc32)cc1 [Cpsé 59, 1-(4-Chlorobenzyl)-3-(2-1H-imidazol-1-ylethyl)-1H-indole]",melting point,,78 to 80 °C
"CCn1cc(C(c2ccc(Cl)cc2Cl)n2cncn2)c2cc(Br)ccc21 (centres unmarked) [Cpsé 47, 5-Bromo-1-ethyl-3-[(2,4-dichlorophenyl)(1H-1,2,4-triazol-1yl)methyl]-1H-indole]",melting point,,124 to 126 °C
same,IC50,[1]; [12],25 µM and 8.07 µg/mL
same,MIC,[2]; [13],> 100 µM
same,MIC,[3]; Alamar Blue,> 100 µM
OC(Cn1cncn1)(Cn1ccc2ccccc21)c1ccc(Cl)cc1Cl (centres unmarked) [compound 78],activity against Candida krusei (in words),"[4]; clinical strains, b748: one strain",active; also recorded: very active
same,CI80 on clinical strains of Candida,[4]; strain CK980001 (Candida krusei),<10 nM
same,CI80 on clinical strains of Candida,[4]; [14],7200 ± 100 nM
same,CI80 on clinical strains of Candida,[4]; [15],9200 ± 40 nM
same,CI80 on clinical strains of Candida,[4]; [16],300 ± 100 nM
same,inhibition of the synthesis of ergosterol (in words),synthesis of ergosterol; preliminary results,strong inhibition
same,reduction of the presence of ergosterol (HPLC determination),"synthesis of ergosterol; treatment for 24 hours at 10 μg, HPLC",70%
same,"ergosterol in the treated sample (UV spectrophotometry, in words)","synthesis of ergosterol; treatment for 24 hours at 10 μg, UV spectrophotometry",absence of ergosterol
same,activity against different strains of Candida (in words),[5],most active
same,activity against Candida lusitaniae (in words),[6]; clinical strain,very active
same,CI80 on clinical strains of Candida,[6],<10 nM
same,activity against Candida parapsilosis (in words),[7]; clinical strains,very active
same,CI80 on clinical strains of Candida,[7]; strain CP980001 (Candida parapsilosis),<10 nM
same,CI80 on clinical strains of Candida,[7]; [17],530 ± 120 nM
same,CI80 on clinical strains of Candida,[8],<10 nM
same,effect of treatment on the survival of the animals (in words),"[9]; Test N°2, 2 × 30 mg/kg/d for 5 d intraperitoneally, monitored 14 days (78: from D9 to D14)",significantly prolonged the survival
same,survival at D14,[9]; [18],100%
same,survival at D18,[9]; [18],75%
same,survival greater than that of the reference treatment (ketoconazole 20 mg/kg),"[9]; Test N°3, 3 × 20 mg/kg/d, experiment continued for 4 more days (D18)",25%
same,survival at D10,"[9]; 3 × 20 mg/kg/d for 5 d, treatment intraperitoneal or per os",100%
same,activity against strains of Candida albicans (in words),[10]; clinical strains,active; also recorded: very active
same,CI80 on clinical strains of Candida,[10]; [19],<1 nM
same,CI80 on clinical strains of Candida,[10]; strain CA980002 (Candida albicans),<10 nM
same,CI80 on clinical strains of Candida,[10]; strain CA980003 (Candida albicans),<10 nM
same,CI80 on clinical strains of Candida,[10]; strain CA980005 (Candida albicans),<10 nM
same,IC50,[1]; promastigotes; read-out: CI50 Leishmania mexicana Promastigotes,< 1000 nM
same,MIC,[2],<0.001 µM
"CC(=O)N1CCN(c2ccc(OCC3COC(Cn4ccnc4)(c4ccc(Cl)cc4Cl)O3)cc2)CC1 (centres unmarked) [Ketoconazole, ketoconazole, reference compound]",CI80 on clinical strains of Candida,[4]; [14],700 ± 20 nM
same,CI80 on clinical strains of Candida,[4]; [15],800 ± 20 nM
same,CI80 on clinical strains of Candida,[4]; [16],<10 nM
same,CI80 on clinical strains of Candida,[6],<10 nM
same,CI80 on clinical strains of Candida,[7]; [17],<10 nM
same,survival at D14,"[9]; Test N°1, ketoconazole 20 mg/kg/d for 5 d",88%
same,survival at D14,"[9]; Test N°2, ketoconazole 10 mg/kg/d for 5 d",Ketoconazole: no survival at D14.
same,survival at D14,[9]; [20],88%
same,survival at D18,[9]; [20],50%
same,survival at D10,[9]; ketoconazole 20 mg/kg/d for 5 d,50%
same,CI80 on clinical strains of Candida,[10]; [19],5 nM
same,IC50,"[1]; Leishmania mexicana, read-out: CI50 Leishmania mexicana Promastigotes",3 ± 0.5 µg/mL
same,IC50,[11],1.3 ± 0.2 µg/mL
same,MIC,"[2]; Candida albicans, 24 h",0.0094 µM
same,CMI or CI80 Candida albicans (CA980001),[2],0.005 µg/mL
"OC(Cn1cncn1)(Cn1ccc2ccccc21)c1ccc(Cl)cc1Cl (centres unmarked) [Cpsé 78, 2-(2,4-Dichlorophenyl)-1-(1,2,4-1H-triazol-1-yl)-3-(indol-1-yl)propan-2-ol]",parasite level in the kidneys compared with the control group (in words),[9]; [18],significant reduction
same,reduction of the hepatic parasite level,Leishmania major; [21],79%
same,reduction of the spleen parasite level,Leishmania major; [21],98.9%
same,activity against Leishmania mexicana (in words),[1],most active
same,IC50,[1]; Leishmania mexicana; read-out: CI50 Leishmania mexicana Promastigotes,0.1 µg/mL and 230 nM
same,activity against the intracellular amastigote form of Leishmania (in words),[11],very active
same,IC50,[11]; intracellular amastigote form,1.5 ± 0.01 µg/mL
same,MIC,"[2]; Candida albicans, 24 h",> 100 µM
same,MIC,[3],> 100 µM
"CNC[C@H](O)[C@@H](O)[C@H](O)[C@H](O)CO.[O]=[Sb](=[O])[OH] [Glucantime ®, meglumine antimoniate, reference compound]",reduction of the hepatic parasite level,"Leishmania major; Glucantime 10 mg/Kg/d, 10 days",74%
same,reduction of the spleen parasite level,"Leishmania major; Glucantime 10 mg/Kg/d, 10 days",82%
same,CI50 Leishmania mexicana Promastigotes,[1],15000 ± 260 µg/mL
same,IC50 on the amastigote stage of Leishmania mexicana,[11],48.7 µg/mL
"Clc1ccc(Cn2cc(C3(Cn4ccnc4)CCCC3)c3ccccc32)cc1 [Cpsé 63, 1-[1-(4-Chlorobenzyl)-1H-indol-3yl]-1-(1H-imidazol-1-ylmethyl)cyclopentane]",melting point,,91 to 92 °C
